Data published in patent publication US11938125B2, “Use of Hsp70 as a regulator of enzymatic activity” (Zevra Denmark A/S, priority 2008, dated 2024).
“Also recorded” adds a separate entry of the source.

What was measured:
[1] = system: lysosomes of U-2-OS cells; test: Lysosomal integrity upon photo-oxidation (acridine orange and blue light); type: cell-based, human; conditions: for protection of lysosomes against photo-oxidation (lysosomal integrity): U-2-OS cells, recombinant protein 300 nM, 24 h
Protocol: Sub-confluent U-2-OS cells incubated with 2 μg/ml acridine orange for 15 min at 37° C. were washed, irradiated and analyzed in Hanks balanced salt solution complemented with 3% FCS. Cells for single cell imaging were selected from 8 pre-defined areas of each well in transmitted light-mode after which the same cells were immediately visualized and exposed to blue light from USH102 100 W mercury arc burner (Ushio electric) installed in a U-ULS100HG housing (Olympus) for 20 sec. Fluorescence microscopy was performed on Olympus IX-70 inverted microscope with a LCPlanF1×20 objective with NA=0.40. Loss of lysosomal pH gradient was quantified by counting the loss of intense red staining.
(§1) Assays for lysosomal integrity. Sub-confluent cells incubated with 2 μg/ml acridine orange for 15 min at 37° C. were washed, irradiated and analyzed in Hanks balanced salt solution complemented with 3% fetal calf serum. Cells for single cell imaging were selected from 8 pre-defined areas of each well in transmitted light-mode after which the same cells were immediately visualized and exposed to blue light from USH102 100 W mercury arc burner (Ushio electric) installed in a U-ULS100HG housing (Olympus) for 20 sec. Fluorescence microscopy was performed on Olympus IX-70 inverted microscope with a LCPlanF1×20 objective with NA=0.40. Loss of lysosomal pH gradient was quantified by counting the loss of intense red staining. A more elaborate method for assaying lysosomal integrity was developed to handle the larger lysosomal compartment of the various fibroblasts used in this study. Cells for single cell imaging were selected from 8 pre-defined areas of each well in transmitted light-mode after which the same cells were immediately and continuously exposed to 489 nm light from a 100 mW diode laser while laser scanning micrographs where captured every 330 ms on a Zeiss LSM LIVE DUO confocal system in two channels defined by bandpass filters for 495-555 nm (green) and LP650 nm (Red) light. The resulting timelapse movies where subsequently analysed by the integrated Zeiss LSM DUO software. The total and cytoplasmic (digitonin-extracted) cathepsin activities were measured in digitonin-treated samples using zFR-AFC (Enzyme System Products) probe as described in the art.

[2] = system: HSPs, including Hsp70; conditions: cited from earlier work
[3] = system: NPDA fibroblasts; test: Lysosomal area of confocal cross sections, NPDA fibroblasts; type: cell-based, human; conditions: for pathology measured by lysosomal cross-sectional area: NPDA Götz cells, 40 mM
Excerpt: Immunodetection and microscopy. Primary antibodies used included mouse monoclonal antibodies against Hsp70 (2H9; kindly provided by Boris Margulis, Russian Academy of Sciences, St. Petersburg, Russia), glyceraldehyde-3-phosphate dehydrogenase (GAPDH; Biogenesis), BMP (6C4), lysosomal integral membrane protein-1 (H5C6; developed by J. Thomas August and James E. K. Hildreth and obtained from the Developmental Studies Hybridoma Bank developed under the auspices of the NICHD and maintained by The University of Iowa, Department of Biological Sciences, Iowa City, USA). Proteins separated by 10% SDS-PAGE and transferred to a nitrocellulose membrane were detected by using indicated primary antibodies, appropriate peroxidase-conjugated secondary antibodies from Dako, ECL Western blotting reagents (Amersham), and Luminescent Image Reader (LAS-1000Plus, Fujifilm). For immunocytochemistry Alexa […] or Alexa Fluor®-488-conjugated secondary antibodies were used. Lysotracker Red® was used for live visualization of the lysosomal compartment. Fluorescence images were taken using a Zeiss Axiovert 100M laser scanning microscope. Lysotracker quantification and timelapse movies for lysosomal integrity were done on a Zeiss LSM LIVE DUO system.

[4] = system: Hsp70; test: Hsp70 protein expression by western blotting in NPDA cells; type: cell-based, human; conditions: NPDA Götz cells, 0, 20, 30, 35, 40, 45 mM
Protocol: It is shown in Examples 2 and 3 that Hsp70 has a lysosome stabilizing effect via an interaction with BMP. In order to evaluate if this effect is also observed when exposing cells to a chemical Hsp70 inducer, Niemann-Pick Type A (NPDA) patient fibroblasts were treated with the small molecule Hsp70 inducer; Benzyl Alcohol (BA). First, NPDA cells were treated with increasing doses of BA (0, 20, 30, 35, 40, 45 mM), lysed, and analysed by western blotting. The same amount of protein was loaded in each well. […] Next, the stability of NPDA Götz lysosomes after treatment with 40 mM BA was evaluated, using the same methods as described in Example 2. […] Finally, the lysosomal cross-sectional area in NPDA Götz cells after treatment with 40 mM BA was evaluated, using the same methods as described in Example 2.

[5] = system: lysosomes of NPDA patient fibroblasts; test: Lysosomal stability of NPDA fibroblasts (photo-oxidation, live single-cell imaging); type: cell-based, human; conditions: NPDA Götz cells, 40 mM
Protocol: as §1

[6] = system: U-2-OS osteosarcoma cells; test: Cisplatin-induced apoptosis-like cell death (Hoechst 33342); type: cell-based, human; conditions: for protection of cells against cisplatin-induced lysosomal cell death: recombinant protein 300 nM 24 h, 25 μM cisplatin 24 h
Protocol: (§2) Apoptosis-like cell death was assessed by staining the cells with 0.05 μg/ml Hoechst 33342 (Molecular Probes) and counting cells with condensed nuclei in an inverted Olympus IX-70 fluorescent Microscope (Filter U-MWU 330-385 nm). For each experiment a minimum of eight randomly chosen areas were counted.
as §2, with “Assays for cell viability. Cell density was assessed by the 3-(4,5-dimethylthiazole-2-y)-2,5-[…] (MTT, SIGMA-Aldrich) reduction assay essentially as described in the art. Apoptosis-like” for “Apoptosis-like”

[7] = system: BMP; test: BIAcore surface plasmon resonance with immobilized BMP-containing LUVs; type: binding; conditions: pH 4.5, L1 sensor chip
Protocol: (§3) For preparation of LUVs a lipid mixture consisting of 10 mol % sphingomyelin, 50 mol % phosphatidylcholine, 20 mol % cholesterol and 20 mol % BMP dissolved in organic solvents, was dried under a stream of argon and rehydrated in Tris/HCl buffer (pH 7.4) (Kolzer et al., 2004). The mixture was freeze-thawed nine times in liquid nitrogen and then in an incubator at 37° C. After ultrasound bath for 15 min the mixture was passed 21 times through a polycarbonate membrane with a pore diameter of 100 nm. Surface plasmon resonance measurements were performed using a BIAcore 2000 system at 25° C. LUVs (total lipid concentration 0.1 mM) were immobilized on the surface of a L1 sensor chip (BIAcore) in PBS (loading buffer). The running buffer used was sodium acetate buffer (50 mM, pH 4.5). As a control, acid sphingomyelinase (0.2 μM, 60 μl in running buffer) was injected directly on the liposome surface. Response units between 4100 RU-5250RU were obtained. The protein of interest was injected in running buffer at a flow rate of 20 μl/min at the concentrations indicated. After injection a dissociation phase of 10 min was appended.
as §3, with “Surface Plasmon Resonance (BIAcore). For” for “For”, “7.4).” for “7.4) (Kolzer et al., 2004).”, “The protein of interest was injected in running buffer at a flow rate of 20 μl/min at the concentrations indicated. After injection a dissociation phase of 10 min was appended.” left out

[8] = Folding and chaperone function of rHsp70 mutant (circular dichroism, luciferase folding, ATP hydrolysis); type: biochemical
[9] = system: POPC/BMP liposomes; test: Tryptophan fluorescence shift upon docking into POPC/BMP liposomes; type: binding; conditions: pH 6.0
Protocol: (§4) The tryptophan fluorescence spectra (RFI) and liposome 900 light scattering (RSI) were analyzed in a HEPES buffer (20 mM HEPES, 0.1 mM EDTA, pH 7.4 or 6.0 as indicated) employing LUVs consisting of indicated lipids essentially as described previously. For the RFI, LUVs were added in 10 μM aliquots and spectra recorded after a 20 min stabilization period. For the RSI, recombinant proteins were added in 0.12 nmol aliquots.
as §4, with “Tryptophan fluorescence spectra and liposome 90° light scattering. The” for “The”, “in the art.” for “previously.”

Compound: 5′-GCCAUGACGAAAGACAACAAUCUGU-3′ (other strand not given here) [Hsp70 siRNA, siRNA targeting the two genes encoding Hsp70, reference compound]
- sensitization of lysosomes to photo-oxidation by siRNA ([1]; U-2-OS cells, siRNA 48 h; listed as siRNA) specific for Hsp70): sensitized lysosomes of U-2-OS cells to photo-oxidation; also recorded: sensitized the lysosomes to photo-oxidation

Compound: [O-][n+]1cccc(/C(Cl)=N/OC[C@H](O)CN2CCCCC2)c1 [Arimoclomol]
- induction or co-induction of HSPs / heat shock response [2]: interacts with and amplifies the heat shock response

Compound: [O-][n+]1cccc(C(Cl)=NOC[C@H](O)CN2CCCCC2)c1 [BRX-345]
- induction or co-induction of HSPs / heat shock response [2]: somewhat lesser ability to induce HSPs

Compound: OCc1ccccc1 [Benzyl Alcohol]
- pathology measured by lysosomal cross-sectional area [3]: Decreased pathology
- pathology measured by lysosomal cross-sectional area ([3]; listed as BA): decreased pathology
- Hsp70 protein expression [4]: Induction of Hsp70 in NPDA Götz by Benzyl alcohol in a dose-dependent manner
- Hsp70 protein expression ([4]; listed as BA): induced Hsp70 expression in a dose-dependent manner
- stability of lysosomes [5]: Increased stability of NPDA Götz lysosomes
- stability of lysosomes ([5]; listed as BA): increased lysosomal stability

Compound: O=C(O)/C=C\C(=O)O.OC(CON=C(Cl)c1cccnc1)CN1CCCCC1 (centres unmarked) [Bimoclomol, [2-hydroxy-3-(1-piperidinyl)propoxy]-3-pyridine-carboximidoyl-chloride maleate]
- induction or co-induction of HSPs / heat shock response [2]: capability of Hsp70 co-induction in the absence of unfolded proteins

Compound: N.N.[Cl][Pt][Cl] [cisplatin, reference compound]
- lysosomal membrane permeabilization ([6]; U-2-OS cells): induces an early lysosomal membrane permeabilization

Compound: Hsc70: recombinant Hsc70, 86% amino acid sequence homology with Hsp70
- protection of lysosomes against photo-oxidation (lysosomal integrity) [1]: no protection; also recorded: no lysosomal stabilization

Compound: Hsp70-2: recombinant Hsp70-2, 84% amino acid sequence homology with Hsp70
- protection of lysosomes against photo-oxidation (lysosomal integrity) [1]: no protection; also recorded: no lysosomal stabilization

Compound: rHsp70-W90F: rHsp70 point mutant, tryptophan 90 substituted with phenylalanine
- interaction with BMP-containing LUVs (BIAcore) [7]: dramatically decreased; also recorded: specifically abolished the interaction between rHsp70 and BMP
- lysosomal area / volume of the lysosomal compartment ([3]; NPDA fibroblasts, 24 h, 300 nM rHsp70 or W90F, 150 nM rASM or combination): effect comparable to control cells
- protection of lysosomes against photo-oxidation (lysosomal integrity) [1]: completely lost its ability to protect the lysosomal membranes against photo-oxidation
- luciferase folding and ATP hydrolysis [8]: capable of folding luciferase and hydrolyzing ATP
- relative peak fluorescence intensity (tryptophan fluorescence shift) [9]: reduction of the signal
- protection of cells against cisplatin-induced lysosomal cell death [6]: completely lost its ability

Compound: rHsp70-W580F: rHsp70 point mutant, tryptophan 580 substituted with phenylalanine
- interaction with BMP-containing LUVs (BIAcore) [7]: essentially the same interaction profile as rHsp70
- protection of lysosomes against photo-oxidation (lysosomal integrity) [1]: same efficacy as the wild-type protein; also recorded: same protective effect as the wild-type protein
- relative peak fluorescence intensity (tryptophan fluorescence shift) [9]: unchanged signal
- protection of cells against cisplatin-induced lysosomal cell death [6]: same efficacy as the wild-type protein; also recorded: same protective effect as the wild-type protein
